Here are results for 26 compounds from US20220267329A1, “Dihydro-Spiro[Indoline-3:1'-Isoquinolin]-2-Ones and Their Analogues and Derivatives and Methods of Treating Cancer and Other Diseases” (The University of Buea, priority 2019, published 2022).

The target in assay [1] is sphingosine-1-phosphate receptor 1 (S1PR1) (Homo sapiens, UniProt P21453). As to the kind of experiment: Radioligand binding to sphingosine-1-phosphate receptor 1. To be noted: test compound 100 nM, 0.2 nM radioligand; for inhibition at 0.1 µM: read-out: % INHIBITION of binding to the SIP1 Receptor. As for the experimental part:
The binding of a representative group of compounds of this invention to sphingosine-1-phosphate receptor 1 (S1PR1) was determined by a published procedure (Rosenberg et al., 2016). In this assay, the test compound at 100 nM concentration was incubated with 0.2 nM radioligand. Active compounds or “hits” are defined as compounds that inhibit radioligand binding by 50% or more. […] This finding is significant because it establishes the 3′,4′-dihydro-2′H-[…]-2-one hybrid scaffold as an entirely new class of ligands for the sphingosine-1-phosphate receptors.

In assay [2] the test system is EMT6 breast cancer cell line. Nature of the assay: Antiproliferative screening on EMT6 cancer cells. To be noted: for activity at 100 µM: Mus musculus, EMT6, no ligand = 100, read-out: EMT6 cell proliferation (%); for EMT6 cell proliferation (%) / inhibition of EMT6 cell proliferation: 100 μM; for EMT6 cell proliferation (%): no ligand = 100. It counts as cell-based. As for the experimental part: Representative compounds were screened tested for antiproliferative activity on the EMT6 breast cancer cell line. Screening was carried out according to published procedures (Zeng et al., 2014). In this screen, compounds were tested at 100 μM concentration.

A further assay has as its system renal cancer cell lines. Nature of the assay: NCI-60 screen, renal cell lines. Particulars: Homo sapiens, NCI-60 preliminary screening, read-out: Percent (%) Inhibition of Cancer Cell Line, Renal Cell. The assay is classed as cell-based, human. As for the experimental part:
(§1) Screening for Anticancer Activity—The NCI-60 panel: Representative compounds of the invention were subjected to anticancer testing in the National Cancer Institute (NCI) 60 screen. In this screen compounds are tested on a panel of sixty human cancer cell lines chosen from the following cancers: leukemia, nonsmall cell lung cancer (NSCLC), colon, melanoma, central nervous system (CNS), ovarian, renal, prostate and breast. The assay method is found on the NCI website (dtp.cancer.gov/discovery_development/nci-60/methodology.htm). In the NCI-60 assay, test compounds undergo preliminary screening at 10 μM concentration. The data is reported as percent growth relative to “no drug” control; therefore values between 0 and 100% denote growth inhibition.

Another assay relates to leukemia cell lines. As to the kind of experiment: NCI-60 screen, leukemia cell lines. The assay is classed as cell-based. Particulars: Homo sapiens, NCI-60 preliminary screening, read-out: Percent (%) Inhibition of Cancer Cell Line, Leukemia. The protocol:
as §1

Assay [3] has as its system nonsmall cell lung cancer (NSCLC) cell lines. Nature of the assay: NCI-60 screen, NSCLC cell lines. Particulars: Homo sapiens, NCI-60 preliminary screening, read-out: Percent (%) Inhibition of Cancer Cell Line, NSCLC. The assay is classed as cell-based, human. As for the experimental part: as §1

Molecules are shown by their SMILES.

Chain of sphingosine-1-phosphate receptor 1 (S1PR1) (P21453 whole entry, species assumed): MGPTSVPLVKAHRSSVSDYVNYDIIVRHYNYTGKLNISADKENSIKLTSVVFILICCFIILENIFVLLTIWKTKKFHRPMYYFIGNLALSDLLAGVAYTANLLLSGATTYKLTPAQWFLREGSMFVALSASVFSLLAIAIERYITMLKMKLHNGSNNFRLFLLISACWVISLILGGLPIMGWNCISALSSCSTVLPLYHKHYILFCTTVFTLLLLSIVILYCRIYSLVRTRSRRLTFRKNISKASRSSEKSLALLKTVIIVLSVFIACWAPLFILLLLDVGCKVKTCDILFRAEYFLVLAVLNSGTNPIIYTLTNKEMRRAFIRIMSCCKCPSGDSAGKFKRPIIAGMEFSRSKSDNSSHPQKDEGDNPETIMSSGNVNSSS

Consider `O=C1N(Cc2ccc(F)cc2)c2ccc(Cl)cc2C12NCCc1cccc(O)c12` (stereo not drawn) [Compound 1k, 5-Chloro-1-(4-fluorobenzyl)-8′-hydroxy-3′,4′-dihydro-2′H-spiro[indoline-3,1′-isoquinolin]-2-one], for which, in assay [1], the inhibition (in general, the percentage by which the read-out fell short of the control) at 0.1 µM is at least 50%.
Regarding `COc1ccc2c(c1)CCNC21C(=O)Nc2ccc(Cl)cc21` (stereo not drawn) [Compound 4b, 5-Chloro-6′-methoxy-3′,4′-dihydro-2′H-spiro[indoline-3,1′-isoquinolin]-2-one], the activity at 100 µM in assay [2] came to 142%. In the assay with renal cancer cell lines, the inhibition at 10 µM was 23 to 30%.
In the case of `O=C1N(Cc2ccccc2[N+](=O)[O-])c2ccccc2C12NCCc1cccc(O)c12` (stereo not drawn) [Compound 1i, 8-Hydroxy-1-(2-nitrobenzyl)-3′,4′-dihydro-2′H-spiro[indoline-3,1′-isoquinolin]-2-one], the “EMT6 cell proliferation (%)” value in assay [2] is given as 108.20%. Also, the “% INHIBITION of binding to the SIP1 Receptor” value (from here on “% INHIBITION of binding”) in assay [1] came to 35.4%.
As for `O=C1N(Cc2ccc(Br)cc2)c2ccccc2C12NCCc1cccc(O)c12` (stereo not drawn) [Compound 1f, 1-(4-bromobenzyl)-8′-hydroxy-3′,4′-dihydro-2′H-spiro[indoline-3,1′-isoquinolin]-2-one], the activity at 100 µM in assay [2] worked out at 103%. Moreover, in assay [1], the inhibition at 0.1 µM is at least 50%.
With `COc1cc2c(c(OC)c1OC)C1(NCC2)C(=O)Nc2ccccc21` (stereo not drawn) [Compound 6a, 6′,7′,8′-Trimethoxy-3′,4′-dihydro-2′H-spiro[indoline-3,1′-isoquinolin]-2-one], the inhibition at 10 µM in the assay with leukemia cell lines and in the assay on renal cancer cell lines was 22% each time. Further, the inhibition at 0.1 µM in assay [1] is 38.4%.
As to `Cc1ccc(CN2C(=O)C3(NCCc4cccc(O)c43)c3ccccc32)cc1` (stereo not drawn) [Compound 1h, 8′-Hydroxy-1-(4-methylbenzyl)-3′,4′-dihydro-2′H-spiro[indoline-3,1′-isoquinolin]-2-one], the activity at 100 µM in assay [2] turned out to be 127%. For the same compound, the inhibition at 0.1 µM in assay [1] is at least 50%.
For `O=C1N(Cc2ccc(Cl)cc2)c2ccccc2C12NCCc1cc(O)ccc12` (stereo not drawn) [Compound 2e, 1-(4-Chlorobenzyl)-6′-hydroxy-3′,4′-dihydro-2′H-spiro[indoline-3,1′-isoquinolin]-2-one], the activity at 100 µM in assay [2] was 72.2%.
For the compound `Cc1ccc(CN2C(=O)C3(NCCc4cc(O)ccc43)c3cc(Cl)ccc32)cc1` (stereo not drawn) [Compound 2m, 5-Chloro-6′-hydroxy-1-(4-methylbenzyl)-3′,4′-dihydro-2′ spiro[indoline-3,1′-isoquinolin]-2-one], the “EMT6 cell proliferation (%)” value in assay [2] worked out at 72.26%. In addition, the “% INHIBITION of binding” value in assay [1] was determined as 52.4%.
With `COc1ccc2c(c1)CCNC21C(=O)N(Cc2ccc(F)cc2)c2ccccc21` (stereo not drawn) [Compound 4d, 6′-Methoxy-1-(4-fluorobenzyl)-3′,4′-dihydro-2′H-spiro[indoline-3,1′-isoquinolin]-2-one], in assay [1], the inhibition at 0.1 µM is 41.5%.
Consider `COc1cc2c(cc1OC)C1(NCC2)C(=O)N(Cc2ccc(F)cc2)c2ccccc21` (stereo not drawn) [Compound 5d, 1-(4-fluorobenzyl)-6′,7′-dimethoxy-3′,4′-dihydro-2′H-spiro[indoline-3,1′-isoquinolin]-2-one], for which the inhibition at 0.1 µM in assay [1] was 40%.
Turning to `O=C1N(Cc2ccc(Br)cc2)c2ccccc2C12NCCc1cc(O)ccc12` (stereo not drawn) [Compound 2f, 1-(4-bromobenzyl)-6′-hydroxy-3′,4′-dihydro-2′H-spiro[indoline-3,1′-isoquinolin]-2-one], in assay [2], the “inhibition of EMT6 cell proliferation” value is “as much as fifty percent” and the activity at 100 µM turned out to be 41.4%.
Regarding `O=C1Nc2ccccc2C12NCCc1cc(O)c(O)cc12` (stereo not drawn) [Compound 3a, 6′,7′-Dihydroxy-3′,4′-dihydro-2′H-spiro[indoline-3,1′-isoquinolin]-2-one], the activity at 100 µM in assay [2] worked out at 91.2%.
For the compound `O=C1N(Cc2ccc(Cl)cc2)c2ccc(Cl)cc2C12NCCc1cc(O)ccc12` (stereo not drawn) [Compound 2l, 5-Chloro-1-(4-chlorobenzyl)-6′-hydroxy-3′,4′-dihydro-2′H-spiro[indoline-3,1′-isoquinolin]-2-one], in assay [2], the “inhibition of EMT6 cell proliferation” value is listed as “as much as fifty percent” and the activity at 100 µM worked out at 37.2%. Also, the inhibition at 0.1 µM in assay [1] is at least 50%.
As to `O=C1Nc2ccc(Cl)cc2C12NCCc1cc(O)c(O)cc12` (stereo not drawn) [Compound 3b, 5-Chloro-6′,7′-dibydroxy-3′,4′-dihydro-2′H-spiro[indoline-3,1′-isoquinolin]-2-one], in assay [1], the “% INHIBITION of binding” value is on record as 34.2%.
With `O=C1N(Cc2ccc(F)cc2)c2ccc(Cl)cc2C12NCCc1cc(O)ccc12` (stereo not drawn) [Compound 2k, 5-Chloro-1-(4-fluorobenzyl)-6′-hydroxy-3′,4′-dihydro-2′H-spiro[indoline-3,1′-isoquinolin]-2-one], the activity at 100 µM in assay [2] stood at 131%.
Regarding `O=C1N(Cc2ccc(Cl)cc2)c2ccc(Cl)cc2C12NCCc1cccc(O)c12` (stereo not drawn) [Compound 1l, 5-Chloro-1-(4-chlorobenzyl)-8′-hydroxy-3′,4′-dihydro-2′H-spiro[indoline-3,1′-isoquinolin]-2-one], in assay [1], the inhibition at 0.1 µM was at least 50%.
Take `Cc1ccc(CN2C(=O)C3(NCCc4cc(O)ccc43)c3ccccc32)cc1` (stereo not drawn) [Compound 2h, 6′-Hydroxy-1-(4-methylbenzyl)-3′,4′-dihydro-2′H-spiro[indoline-3,1′-isoquinolin]-2-one]: the activity at 100 µM in assay [2] came to 132%. In addition, the inhibition at 10 µM in the assay on leukemia cell lines came out at 24%; in the assay with renal cancer cell lines, 25%; in assay [3], 32%.
For `COc1cc2c(c(OC)c1OC)C1(NCC2)C(=O)Nc2c(Br)cc(Br)cc21` (stereo not drawn) [Compound 6c, 5,7-Dibromo-6′,7′,8′-trimethoxy-3′,4′-dihydro-2′H-spiro[indoline-3,1′-isoquinolin]-2-one], in assay [1], the inhibition at 0.1 µM amounted to 36.7%.
Take `O=C1Nc2ccc(Cl)cc2C12NCCc1cc(O)ccc12` (stereo not drawn) [Compound 2b, 5-Chloro-6′-hydroxy-3′,4′-dihydro-2′H-spiro[indoline-3,1′-isoquinolin]-2-one]: in assay [2], the activity at 100 µM was determined as 109%. Further, the inhibition at 10 µM (in the assay with renal cancer cell lines; in assay [3]) was 17% in each case.
In the case of `O=C1N(Cc2ccc(F)cc2)c2ccccc2C12NCCc1cc(O)ccc12` (stereo not drawn) [Compound 2d, 1-(4-Fluorobenzyl)-6′-hydroxy-3′,4′-dihydro-2′H-spiro[indolline-3,1′-isoquinolin]-2-one], in assay [2], the “EMT6 cell proliferation (%)” value worked out at 123.61%.
As for `COc1ccc2c(c1)CCNC21C(=O)Nc2c(Br)cc(Br)cc21` (stereo not drawn) [Compound 4c, 5,7-Dibromo-6′-methoxy-3′,4′-dihydro-2′H-spiro[indoline-3,1′-isoquinolin]-2-one], the inhibition at 0.1 µM in assay [1] worked out at 36.3%.
Turning to `O=C1Nc2c(Br)cc(Br)cc2C12NCCc1cccc(O)c12` (stereo not drawn) [Compound 1c, 5,7-Dibromo-8′-hydroxy-3′,4′-dihydro-2′H-spiro[indoline-3,1′-isoquinolin]-2-one], the activity at 100 µM in assay [2] was found to be 87.6%.
Regarding `COc1cc2c(c(OC)c1OC)C1(NCC2)C(=O)N(Cc2ccc(C)cc2)c2ccccc21` (stereo not drawn) [Compound 6e, 6′,7′,8′-Trimethoxy-1-(4-methylbenzyl)-3′,4′-dihydro-2′H-spiro[indoline-3,1′-isoquinolin]-2-one], in assay [1], the inhibition at 0.1 µM worked out at 31.3%.
Still for that read-out and setting: the same measure for `COc1cc2c(c(OC)c1OC)C1(NCC2)C(=O)N(Cc2ccc(F)cc2)c2ccccc21` (stereo not drawn) [Compound 6d, 1-(4-Fluorobenzyl)-6′,7′,8′-trimethoxy-3′,4′-dihydro-2′H-spiro[indoline-3,1′-isoquinolin]-2-one]: at least 50%.
With `O=C1N(Cc2ccccc2[N+](=O)[O-])c2ccccc2C12NCCc1cc(O)ccc12` (stereo not drawn) [Compound 2i, 6′-Hydroxy-1-(2-nitrobenzyl)-3′,4′-dihydro-2′H-spiro[indoline-3,1′-isoquinolin]-2-one], the activity at 100 µM in assay [2] was found to be 98.5%.
As for `COc1cc2c(cc1OC)C1(NCC2)C(=O)Nc2ccccc21` (stereo not drawn) [Compound 5a, 6′,7′-Dimethoxy-3′,4′-dihydro-2′H-spiro[indoline-3,1′-isoquinolin]-2-one], the inhibition at 10 µM in the assay on renal cancer cell lines was 25 to 37%. Also, in assay [1], the inhibition at 0.1 µM came to 39.1%.
